Measurements taken from doi:10.1101/2023.11.24.568596v1 (biorxiv, 2023).
Values belong to the compound of their own block, whether it stands above or below them.

How the values were obtained:
Settings in all cases: binder
AKT3 = AKT3 (Homo sapiens, UniProt Q9Y243)
BMPR2 = molecular target: T1, BMPR2 (Homo sapiens, UniProt Q13873)
T1 sequence (Q13873 1-1038): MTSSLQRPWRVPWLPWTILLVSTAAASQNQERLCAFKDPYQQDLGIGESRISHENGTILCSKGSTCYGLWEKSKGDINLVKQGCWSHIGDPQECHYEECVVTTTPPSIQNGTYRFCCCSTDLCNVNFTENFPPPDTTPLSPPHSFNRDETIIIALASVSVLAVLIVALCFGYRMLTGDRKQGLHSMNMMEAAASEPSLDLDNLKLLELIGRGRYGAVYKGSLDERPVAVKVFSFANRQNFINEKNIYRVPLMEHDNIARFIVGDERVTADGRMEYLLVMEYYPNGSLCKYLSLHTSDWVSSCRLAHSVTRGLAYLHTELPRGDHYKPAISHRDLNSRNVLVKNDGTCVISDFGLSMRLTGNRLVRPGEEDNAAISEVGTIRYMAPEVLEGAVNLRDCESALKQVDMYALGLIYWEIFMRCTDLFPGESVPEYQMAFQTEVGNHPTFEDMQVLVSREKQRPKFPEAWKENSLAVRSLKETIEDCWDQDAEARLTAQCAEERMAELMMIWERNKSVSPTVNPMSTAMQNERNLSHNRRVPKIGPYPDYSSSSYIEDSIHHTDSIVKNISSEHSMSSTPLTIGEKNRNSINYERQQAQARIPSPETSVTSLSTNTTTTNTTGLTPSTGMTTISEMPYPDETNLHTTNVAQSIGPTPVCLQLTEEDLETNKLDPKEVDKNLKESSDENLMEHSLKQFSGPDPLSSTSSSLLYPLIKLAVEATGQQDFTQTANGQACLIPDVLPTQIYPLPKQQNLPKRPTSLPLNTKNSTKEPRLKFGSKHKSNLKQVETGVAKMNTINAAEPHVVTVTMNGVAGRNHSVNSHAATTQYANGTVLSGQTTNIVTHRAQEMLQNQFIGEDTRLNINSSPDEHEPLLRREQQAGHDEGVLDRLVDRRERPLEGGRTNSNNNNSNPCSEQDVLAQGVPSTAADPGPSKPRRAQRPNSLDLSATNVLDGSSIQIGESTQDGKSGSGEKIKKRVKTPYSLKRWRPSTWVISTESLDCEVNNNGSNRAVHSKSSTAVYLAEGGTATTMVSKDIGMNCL

BRD4 = BRD4 (Homo sapiens, UniProt O60885)
CDK2 = CDK2 (Homo sapiens, UniProt P24941)
CK1d = CK1d (Homo sapiens, UniProt P48730)
CK2a2 = CK2a2 (Homo sapiens, UniProt P19784)
EphA2 = EphA2 (Homo sapiens, UniProt P29317)
Erk7 = molecular target: T2, Erk7 (Homo sapiens, UniProt Q8TD08)
T2 sequence (Q8TD08 1-544): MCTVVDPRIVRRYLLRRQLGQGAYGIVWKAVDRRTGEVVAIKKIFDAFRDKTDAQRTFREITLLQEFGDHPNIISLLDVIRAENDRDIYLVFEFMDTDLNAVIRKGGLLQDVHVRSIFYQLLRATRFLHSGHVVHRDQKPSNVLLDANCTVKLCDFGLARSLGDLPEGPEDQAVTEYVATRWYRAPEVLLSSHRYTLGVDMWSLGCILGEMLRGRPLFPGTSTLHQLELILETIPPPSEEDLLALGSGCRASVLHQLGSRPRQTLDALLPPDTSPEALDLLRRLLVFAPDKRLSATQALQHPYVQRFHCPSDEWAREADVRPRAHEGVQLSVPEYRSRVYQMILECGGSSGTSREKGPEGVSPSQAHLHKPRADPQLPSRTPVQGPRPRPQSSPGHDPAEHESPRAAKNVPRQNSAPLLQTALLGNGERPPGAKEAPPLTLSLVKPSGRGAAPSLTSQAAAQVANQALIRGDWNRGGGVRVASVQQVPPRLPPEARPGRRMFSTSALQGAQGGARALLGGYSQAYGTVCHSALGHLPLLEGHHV

JNK1 = JNK1 (Homo sapiens, UniProt P45983)
LOK = LOK (Homo sapiens, UniProt O94804)
MST2 = molecular target: T3, MST2 (Homo sapiens, UniProt Q13188)
T3 sequence (Q13188 1-491): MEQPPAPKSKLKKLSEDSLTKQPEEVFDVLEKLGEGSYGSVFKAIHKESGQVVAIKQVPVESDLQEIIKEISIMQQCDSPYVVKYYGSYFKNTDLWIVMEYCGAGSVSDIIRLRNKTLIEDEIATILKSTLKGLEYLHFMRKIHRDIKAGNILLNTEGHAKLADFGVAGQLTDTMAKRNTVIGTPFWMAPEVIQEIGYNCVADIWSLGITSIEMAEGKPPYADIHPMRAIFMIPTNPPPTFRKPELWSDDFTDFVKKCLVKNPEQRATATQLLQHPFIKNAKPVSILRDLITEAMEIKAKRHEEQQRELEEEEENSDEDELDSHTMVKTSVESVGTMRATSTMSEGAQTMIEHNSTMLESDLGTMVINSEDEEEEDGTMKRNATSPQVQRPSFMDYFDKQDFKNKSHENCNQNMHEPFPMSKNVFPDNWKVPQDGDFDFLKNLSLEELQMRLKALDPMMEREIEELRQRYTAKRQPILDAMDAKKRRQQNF

Sequence of EphA2 (P29317 whole entry): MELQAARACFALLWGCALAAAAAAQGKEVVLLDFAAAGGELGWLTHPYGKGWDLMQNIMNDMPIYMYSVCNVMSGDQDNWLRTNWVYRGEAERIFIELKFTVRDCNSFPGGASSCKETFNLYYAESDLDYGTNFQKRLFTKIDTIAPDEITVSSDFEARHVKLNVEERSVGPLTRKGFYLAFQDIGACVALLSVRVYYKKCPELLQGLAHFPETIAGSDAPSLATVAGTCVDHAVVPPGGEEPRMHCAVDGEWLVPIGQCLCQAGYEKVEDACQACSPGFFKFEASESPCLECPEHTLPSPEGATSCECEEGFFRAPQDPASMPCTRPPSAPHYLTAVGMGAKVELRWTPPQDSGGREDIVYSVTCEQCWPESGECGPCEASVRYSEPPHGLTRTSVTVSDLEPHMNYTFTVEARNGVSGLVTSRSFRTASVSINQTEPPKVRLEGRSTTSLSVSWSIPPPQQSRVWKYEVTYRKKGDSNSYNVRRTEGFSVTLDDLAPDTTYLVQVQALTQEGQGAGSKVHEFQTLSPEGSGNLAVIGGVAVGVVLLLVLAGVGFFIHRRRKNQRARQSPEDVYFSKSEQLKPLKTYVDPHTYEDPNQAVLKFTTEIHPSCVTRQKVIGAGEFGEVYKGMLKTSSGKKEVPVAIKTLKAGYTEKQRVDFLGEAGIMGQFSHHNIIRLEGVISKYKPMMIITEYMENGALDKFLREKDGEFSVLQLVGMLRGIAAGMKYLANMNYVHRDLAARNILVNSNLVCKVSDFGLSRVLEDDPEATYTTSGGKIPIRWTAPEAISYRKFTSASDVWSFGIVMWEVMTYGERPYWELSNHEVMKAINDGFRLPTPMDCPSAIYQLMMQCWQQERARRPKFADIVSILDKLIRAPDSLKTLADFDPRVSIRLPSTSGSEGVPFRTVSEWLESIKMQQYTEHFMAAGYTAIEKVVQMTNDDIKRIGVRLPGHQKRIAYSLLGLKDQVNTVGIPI
Sequence of CK1d (P48730 whole entry): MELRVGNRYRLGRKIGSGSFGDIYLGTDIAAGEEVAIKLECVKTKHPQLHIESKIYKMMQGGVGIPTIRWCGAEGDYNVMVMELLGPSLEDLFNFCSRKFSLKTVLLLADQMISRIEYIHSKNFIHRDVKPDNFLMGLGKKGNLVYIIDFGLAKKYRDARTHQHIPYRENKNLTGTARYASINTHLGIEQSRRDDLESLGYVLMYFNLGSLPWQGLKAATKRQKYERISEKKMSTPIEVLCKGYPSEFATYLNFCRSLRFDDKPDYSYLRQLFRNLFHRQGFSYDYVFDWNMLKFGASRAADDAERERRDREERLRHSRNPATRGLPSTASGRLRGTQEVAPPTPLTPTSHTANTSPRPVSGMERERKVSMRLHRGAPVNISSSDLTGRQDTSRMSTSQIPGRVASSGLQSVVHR
Sequence of CK2a2 (P19784 whole entry): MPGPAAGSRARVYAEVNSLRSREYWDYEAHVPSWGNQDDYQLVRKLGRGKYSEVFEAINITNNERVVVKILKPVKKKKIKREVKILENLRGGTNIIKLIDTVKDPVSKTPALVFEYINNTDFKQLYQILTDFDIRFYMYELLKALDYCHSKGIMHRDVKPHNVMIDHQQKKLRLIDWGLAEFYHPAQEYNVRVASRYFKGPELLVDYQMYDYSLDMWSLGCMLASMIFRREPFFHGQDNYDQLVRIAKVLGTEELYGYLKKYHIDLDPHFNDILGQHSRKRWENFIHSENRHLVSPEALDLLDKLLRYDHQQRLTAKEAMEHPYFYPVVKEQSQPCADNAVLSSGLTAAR
Sequence of AKT3 (Q9Y243 whole entry): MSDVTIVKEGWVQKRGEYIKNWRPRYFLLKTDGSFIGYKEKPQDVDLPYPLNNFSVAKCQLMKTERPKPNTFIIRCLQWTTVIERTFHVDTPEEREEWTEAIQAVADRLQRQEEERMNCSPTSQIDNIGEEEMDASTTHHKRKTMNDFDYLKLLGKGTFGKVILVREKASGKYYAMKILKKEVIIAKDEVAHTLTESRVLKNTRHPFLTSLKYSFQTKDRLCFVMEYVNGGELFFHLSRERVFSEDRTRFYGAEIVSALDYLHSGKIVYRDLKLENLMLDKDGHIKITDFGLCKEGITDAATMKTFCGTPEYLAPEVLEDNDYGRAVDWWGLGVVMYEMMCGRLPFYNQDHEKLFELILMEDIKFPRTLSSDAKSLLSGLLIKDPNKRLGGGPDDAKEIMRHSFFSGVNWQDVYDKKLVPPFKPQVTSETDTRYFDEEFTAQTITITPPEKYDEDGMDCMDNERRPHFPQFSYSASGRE
Sequence of LOK (O94804 whole entry): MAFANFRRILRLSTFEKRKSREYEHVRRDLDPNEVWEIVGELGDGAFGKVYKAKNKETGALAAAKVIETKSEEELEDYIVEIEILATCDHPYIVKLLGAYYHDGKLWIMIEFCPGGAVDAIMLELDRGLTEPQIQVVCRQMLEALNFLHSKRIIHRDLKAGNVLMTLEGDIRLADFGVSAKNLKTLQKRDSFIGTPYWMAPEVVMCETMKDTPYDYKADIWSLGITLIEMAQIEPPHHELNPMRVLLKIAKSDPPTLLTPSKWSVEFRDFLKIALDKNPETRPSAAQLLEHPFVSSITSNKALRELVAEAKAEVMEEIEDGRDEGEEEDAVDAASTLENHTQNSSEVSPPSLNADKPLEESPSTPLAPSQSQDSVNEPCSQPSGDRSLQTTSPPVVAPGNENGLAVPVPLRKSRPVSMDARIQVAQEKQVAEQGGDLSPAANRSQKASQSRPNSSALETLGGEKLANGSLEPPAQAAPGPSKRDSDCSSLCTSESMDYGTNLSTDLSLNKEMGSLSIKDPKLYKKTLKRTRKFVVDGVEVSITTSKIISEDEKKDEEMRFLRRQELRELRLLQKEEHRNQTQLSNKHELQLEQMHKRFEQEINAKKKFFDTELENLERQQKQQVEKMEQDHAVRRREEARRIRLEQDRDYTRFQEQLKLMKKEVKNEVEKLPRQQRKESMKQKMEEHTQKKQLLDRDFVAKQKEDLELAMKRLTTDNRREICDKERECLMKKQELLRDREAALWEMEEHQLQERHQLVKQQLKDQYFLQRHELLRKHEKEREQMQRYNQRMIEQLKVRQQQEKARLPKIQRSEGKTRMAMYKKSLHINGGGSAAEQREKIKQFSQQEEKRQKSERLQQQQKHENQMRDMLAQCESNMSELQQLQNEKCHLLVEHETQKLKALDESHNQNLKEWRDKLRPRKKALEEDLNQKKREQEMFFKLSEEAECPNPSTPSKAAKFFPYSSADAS
Sequence of JNK1 (P45983 whole entry): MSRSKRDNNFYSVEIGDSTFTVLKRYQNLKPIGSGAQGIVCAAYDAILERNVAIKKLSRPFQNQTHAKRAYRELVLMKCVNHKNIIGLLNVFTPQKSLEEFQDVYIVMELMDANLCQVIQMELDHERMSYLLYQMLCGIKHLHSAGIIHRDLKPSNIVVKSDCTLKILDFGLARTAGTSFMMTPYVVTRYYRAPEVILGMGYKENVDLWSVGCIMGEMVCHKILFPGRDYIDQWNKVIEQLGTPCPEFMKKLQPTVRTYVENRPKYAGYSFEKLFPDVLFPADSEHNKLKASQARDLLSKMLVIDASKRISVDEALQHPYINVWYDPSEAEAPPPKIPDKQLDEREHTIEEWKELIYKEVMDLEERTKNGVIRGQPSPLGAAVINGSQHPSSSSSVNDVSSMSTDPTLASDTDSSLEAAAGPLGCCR

Compound: CNc1ncc2cc(-c3ccc(-c4cccc(C)n4)cc3Cl)c(=O)n(CCCCN)c2n1 [compound 20, MRLW5]
ΔTm MRLW5 (20) (AKT3): 2.3 °C
ΔTm MRLW5 (20) (BMPR2): -0.1 °C
ΔTm MRLW5 (20) (BRD4): -0.7 °C
ΔTm MRLW5 (20) (CDK2): 1.3 °C
ΔTm MRLW5 (20) (CK1d): 0.8 °C
ΔTm MRLW5 (20) (CK2a2): -0.6 °C
ΔTm MRLW5 (20) (EphA2): 3.5 °C
ΔTm MRLW5 (20) (Erk7): 1.0 °C
ΔTm MRLW5 (20) (JNK1): 4.2 °C
ΔTm MRLW5 (20) (LOK): 12.5 °C
ΔTm MRLW5 (20) (MST2): 7.9 °C

Compound: CNc1ncc2cc(-c3ccc(-c4cccc(C)n4)cc3Cl)c(=O)n(CCC3CCNCC3)c2n1 [compound 22, 6-(2-Chloro-4-(6-methylpyridin-2-yl)phenyl)-2-(methylamino)-8-(2-(piperidin-4-yl)ethyl)pyrido[2,3-d]pyrimidin-7(8H)-one]
ΔTm 22 (AKT3): 4.6 °C
ΔTm 22 (BMPR2): -0.3 °C
ΔTm 22 (BRD4): 0.0 °C
ΔTm 22 (CDK2): 2.5 °C
ΔTm 22 (CK1d): 2.1 °C
ΔTm 22 (CK2a2): -1.4 °C
ΔTm 22 (EphA2): 2.3 °C
ΔTm 22 (Erk7): 1.5 °C
ΔTm 22 (JNK1): 4.0 °C
ΔTm 22 (LOK): 11.4 °C
ΔTm 22 (MST2): 8.0 °C

Compound: CNc1ncc2cc(-c3ccc(-c4cccc(C)n4)cc3Cl)c(=O)n(C[C@H]3CC[C@H](N)CC3)c2n1 [compound 23, 23]
ΔTm 23 (AKT3): 3.7 °C
ΔTm 23 (BMPR2): -0.7 °C
ΔTm 23 (BRD4): -1.1 °C
ΔTm 23 (CDK2): 3.5 °C
ΔTm 23 (CK1d): 2.3 °C
ΔTm 23 (CK2a2): -0.9 °C
ΔTm 23 (EphA2): 3.2 °C
ΔTm 23 (Erk7): 4.2 °C
ΔTm 23 (JNK1): 4.5 °C
ΔTm 23 (LOK): 13.0 °C
ΔTm 23 (MST2): 10.8 °C

Compound: Cc1cccc(-c2ccc(-c3cc4cnc(NC(CO)CO)nc4n(CCCCN)c3=O)c(Cl)c2)n1 [compound 24, 8-(4-Aminobutyl)-6-(2-chloro-4-(6-methylpyridin-2-yl)phenyl)-2-((1,3-dihydroxypropan-2-yl)amino)pyrido[2,3-d]pyrimidin-7(8H)-one]
ΔTm MR24 (24) (AKT3): 1.0 °C
ΔTm MR24 (24) (BMPR2): -0.1 °C
ΔTm MR24 (24) (BRD4): -1.7 °C
ΔTm MR24 (24) (CDK2): 1.2 °C
ΔTm MR24 (24) (CK1d): 1.2 °C
ΔTm MR24 (24) (CK2a2): -2.0 °C
ΔTm MR24 (24) (EphA2): 0.6 °C
ΔTm MR24 (24) (Erk7): -0.4 °C
ΔTm MR24 (24) (JNK1): 0.7 °C
ΔTm MR24 (24) (LOK): -0.6 °C
ΔTm MR24 (24) (MST2): 4.9 °C

Further lines, with some results ahead:

ΔTm 25 (AKT3): 2.0 °C
ΔTm 25 (BMPR2): -0.2 °C
ΔTm 25 (BRD4): -2.9 °C
ΔTm 25 (CDK2): 4.9 °C
ΔTm 25 (CK1d): 3.1 °C
ΔTm 25 (CK2a2): -1.9 °C
ΔTm 25 (EphA2): 3.3 °C
ΔTm 25 (JNK1): 4.5 °C
ΔTm 25 (LOK): -0.7 °C
ΔTm 25 (MST2): 9.4 °C
Compound: Cc1cccc(-c2ccc(-c3cc4cnc(NCCCc5ccc(N)cc5)nc4n(CCCCN)c3=O)c(Cl)c2)n1 [compound 25, 8-(4-Aminobutyl)-2-((3-(4-aminophenyl)propyl)amino)-6-(2-chloro-4-(6-methylpyridin-2-yl)phenyl)pyrido[2,3-d]pyrimidin-7(8H)-one]
ΔTm 25 (Erk7): 2.9 °C

ΔTm MR26 (26) (AKT3): 0.8 °C
ΔTm MR26 (26) (BMPR2): -0.2 °C
ΔTm MR26 (26) (BRD4): -1.2 °C
ΔTm MR26 (26) (CDK2): 0.9 °C
ΔTm MR26 (26) (CK1d): 1.9 °C
ΔTm MR26 (26) (CK2a2): -1.0 °C
ΔTm MR26 (26) (EphA2): 4.2 °C
ΔTm MR26 (26) (JNK1): 0.8 °C
ΔTm MR26 (26) (LOK): -0.4 °C
ΔTm MR26 (26) (MST2): 7.7 °C
Compound: Cc1cccc(-c2ccc(-c3cc4cnc(NCCCN5CCOCC5)nc4n(CCCCN)c3=O)c(Cl)c2)n1 [compound 26, MR26]
ΔTm MR26 (26) (Erk7): -0.4 °C
